From paper PMC8501045, “Addressing MRSA infection and antibacterial resistance with peptoid polymers” (Nature Communications, 2021)
Converted amounts (≈) assume the structure as drawn. “And” between values parts separate entries of the source, which are not always exact repeats. Identical values can stand only once.

How the values were obtained:
[1] = tested on: S. aureus USA300 mature biofilm; test: Activity against mature biofilm; format: cell-based, Staphylococcus aureus; conditions: for Biofilm survival(%): vancomycin, r4-r9 = 32, 64, 128, 256, 512, 1024 MIC
Procedure: The plate was incubated at 37 °C for 24 h to allow biofilm formation. […] Then MTT assay was used to determine the biofilm viability. Wells containing inoculum and without antibacterial agents were used as the positive control; wells containing only MH medium were used as the blank. The percentage of surviving cells within biofilm was calculated from5 %cellviability=A570polymer-A570blank/A570control-A570blank×100
(§1) The test was independently repeated at least three times.

E. faecium 0610 = test: MIC assay, clinical isolate; format: cell-based; conditions: Enterococcus faecium, 0610
Procedure: (§2) MRSA (S. aureus Mu50, S. aureus Newman, S. aureus USA400, S. aureus USA300 LAC, S. aureus USA300) were obtained from Shanghai Institute of Materia Medica, Chinese Academy of Sciences. All clinically isolated Gram-positive bacteria used in this study were isolated from patients with various infections, different ages and sexes in the Shanghai Ruijin Rehabilitation Hospital. All strains were cultured in Luria-Bertani (LB) medium at 37 °C before use.
(§3) Bacteria were cultured in LB medium at 37 °C for 10 h, and then the bacterial suspension was diluted in Mueller–Hinton (MH) medium to a cell density of 2 × 10^5 colony forming units (CFU)/mL as the working suspension. The poly(Naeg)20 was serially diluted by MH medium in a 96-well plate, and an equal volume of bacterial suspension was added into each well. The final concentration of the poly(Naeg)20 was ranging from 200 to 1.56 μg/mL, and the plates were incubated at 37 °C for 9 h. Wells with inoculum and no polymer were used as the positive control; wells with only MH medium were used as the blank. The optical density (OD) in each well was measured on a Molecular Devices SpectraMax M2 precision microplate reader. The percentage of bacteria growth was calculated from1 %cellgrowth=A600polymer-A600blank/A600control-A600blank×100
as §1

E. faecium 2504 = test: MIC assay, clinical isolate; format: cell-based; conditions: Enterococcus faecium, 2504
Procedure: as §2, §3, §1

S. haemolyticus 1303 = test: MIC assay, clinical isolate; format: cell-based; conditions: Staphylococcus haemolyticus, 1303
Procedure: as §2, §3, §1

E. faecalis 0609 = test: MIC assay, clinical isolate; format: cell-based; conditions: Enterococcus faecalis, 0609
Procedure: as §2, §3, §1

S. epidermidis 0501 = test: MIC assay, clinical isolate; format: cell-based; conditions: Staphylococcus epidermidis, 0501
Procedure: as §2, §3, §1

E. faecium 1205 = test: MIC assay, clinical isolate; format: cell-based; conditions: Enterococcus faecium, 1205
Procedure: as §2, §3, §1

E. faecium 0609 = test: MIC assay, clinical isolate; format: cell-based; conditions: Enterococcus faecium, 0609
Procedure: as §2, §3, §1

S. haemolyticus 1107 = test: MIC assay, clinical isolate; format: cell-based; conditions: Staphylococcus haemolyticus, 1107
Procedure: as §2, §3, §1

L. monocytogenes 1001 = test: MIC assay, clinical isolate; format: cell-based, Listeria monocytogene; conditions: Listeria monocytogenes, 1001
Procedure: as §2, §3, §1

[2] = tested on: S. aureus USA300 LAC biofilm; test: Mouse keratitis model, MRSA biofilm on contact lens; format: in vivo; conditions: 1.56 mg/mL topical
Procedure: The contact lenses were cut into discs with a diameter of 3.5 mm and placed in a 96-well plate. The discs were soaked with 150 μL of MH medium overnight. Then the discs were transferred to a new 96-well plate and 150 μL of S. aureus USA300 LAC suspension (10^5 CFU/mL in MH medium) was added into corresponding wells. The plate was incubated at 37 °C with shaking at 100 rpm. After 2 h incubation, the suspension was aspirated and the lenses were washed with PBS to remove any nonadherent cells, followed by the addition of 150 μL of fresh MH medium. The plate containing the contact lenses with adhered cells was incubated at 37 °C with shaking at 100 rpm for 18 h to allow biofilm formation.
Male balb/c mice (22–24 g) were intraperitoneally injected with cyclophosphamide (150 mg/kg at 4 days and 100 mg/kg at 1 day before inducing keratitis) for immunosuppression. […] In addition, 0.5% tetracaine hydrochloride eye drops were used as topical anesthesia and then a 2 mm-diameter filter paper disc containing 2 μL of 99% 1-heptanol was placed on the center of the cornea for 15 min. […] All mice were killed and the eyeballs of each mouse were collected immediately 30 min after the last treatment, followed by the quantitative analysis of bacterial burden.

## CN[C@H](CC(C)C)C(=O)N[C@H]1C(=O)N[C@@H](CC(N)=O)C(=O)N[C@H]2C(=O)N[C@H]3C(=O)N[C@H](C(=O)N[C@H](C(=O)O)c4cc(O)cc(O)c4-c4cc3ccc4O)[C@H](O)c3ccc(c(Cl)c3)Oc3cc2cc(c3O[C@@H]2O[C@H](CO)[C@@H](O)[C@H](O)[C@H]2O[C@H]2C[C@](C)(N)[C@H](O)[C@H](C)O2)Oc2ccc(cc2Cl)[C@H]1O [Vancomycin]
[1]
  concentration that eradicates mature biofilms of S. aureus: > 1024 × MIC
[1]; replicate 1
  Biofilm survival(%): 57.1927% and 41.3774% and 45.7038% and 29.4643% and 29.3131% and 28.1882%
[1]; replicate 2
  Biofilm survival(%): 57.8677% and 50.7936% and 39.7472% and 30.2942% and 28.1255% and 26.0416%
E. faecium 0610
  MIC: 0.78 µg/mL (≈ 0.538 µM)
E. faecium 2504
  MIC: 0.78 µg/mL (≈ 0.538 µM)
S. haemolyticus 1303
  MIC: 0.78 µg/mL (≈ 0.538 µM)
E. faecalis 0609
  MIC: 0.39 µg/mL (≈ 0.269 µM)
S. epidermidis 0501
  MIC: 0.78 µg/mL (≈ 0.538 µM)
E. faecium 1205
  MIC: 0.39 µg/mL (≈ 0.269 µM)
E. faecium 0609
  MIC: 50 µg/mL (≈ 34.5 µM)
S. haemolyticus 1107
  MIC: 0.78 µg/mL (≈ 0.538 µM)
L. monocytogenes 1001
  MIC: 0.39 µg/mL (≈ 0.269 µM)
[2]
  reduction of the bacterial load of each eye of the mouse: ineffective
